{
  "source": "patent US8598160B2",
  "about": "“Cycloalkyl lactame derivatives as inhibitors of 11-beta-hydroxysteroid dehydrogenase 1” (Vitae Pharmaceuticals, Inc., priority 2008, dated 2013)",
  "biological_target": "human 11β-HSD1 (Homo sapiens, UniProt P28845)",
  "sequence (P28845 whole entry)": "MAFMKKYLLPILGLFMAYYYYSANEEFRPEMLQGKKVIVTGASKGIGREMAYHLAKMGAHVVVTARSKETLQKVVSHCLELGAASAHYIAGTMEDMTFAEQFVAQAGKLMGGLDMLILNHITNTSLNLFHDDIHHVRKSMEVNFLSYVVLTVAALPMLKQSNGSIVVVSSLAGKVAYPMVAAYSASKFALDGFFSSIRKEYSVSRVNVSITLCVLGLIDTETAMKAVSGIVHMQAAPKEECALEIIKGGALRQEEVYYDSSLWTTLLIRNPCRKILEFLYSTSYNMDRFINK",
  "experiment": "biochemical",
  "details": "for inhibition at 0.1 µM: read-out: Average % inhibition at 100 nM; for inhibition at 0.1111 µM: read-out: Average % inhibition at 111.1 nM",
  "experimental": "All reactions were carried out at rt in 96 well clear flexible PET Microbeta plates (PerkinElmer). […] The reaction was stopped by adding 50 μl of the SPA beads suspension containing 10 μM 18β-glycyrrhetinic acid, 5 mg/ml protein A coated YSi SPA beads (GE Healthcare) and 3.3 μg/ml of anti-cortisol antibody (East Coast Biologics) in Superblock buffer (Bio-Rad). The plates were shaken for 120 minutes at rt, and the SPA signal corresponding to [^3H]cortisol was measured on a Microbeta plate reader.",
  "data": [
    {"smiles": "C[C@@H](c1ccc(-c2ccc(F)cc2F)cc1)N1CCC(c2ccccc2)CC1=O", "note": "(mixture of isomers) [Example 5, 1-((1S)-1-(2′,4′-difluorobiphenyl-4-yl)ethyl)-4-phenylpiperidin-2-one]", "values": [
      {"measurement": "IC50", "result": "< 100", "unit": "nM"},
      {"measurement": "inhibition at 0.1 µM", "result": 94.5, "unit": "%"}
    ]},
    {"smiles": "C[C@@H](c1ccc(Br)cc1)N1CCC(c2ccc(F)cc2)OC1=O", "note": "(mixture of isomers) [Example 7, 3-((1S)-1-(4-bromophenyl)ethyl)-6-(4-fluorophenyl)-1,3-oxazinan-2-one]", "values": [
      {"measurement": "IC50", "result": "< 100", "unit": "nM"},
      {"measurement": "inhibition at 0.1 µM", "result": 90.1, "unit": "%"}
    ]},
    {"smiles": "O=C1O[C@@H](c2ccccc2)CCN1c1cccc2ccccc12", "note": "[Example 3, (R)-3-(naphthalen-1-yl)-6-phenyl-1,3-oxazinan-2-one]", "values": [
      {"measurement": "IC50", "result": "100 to 1000", "unit": "nM"},
      {"measurement": "inhibition at 0.1111 µM", "result": -5.9, "unit": "%"}
    ]},
    {"smiles": "O=C1OC(c2ccccc2Cl)CCN1c1cccc(Br)c1", "note": "(stereo not drawn) [Example 4, 3-(3-bromophenyl)-6-(2-chlorophenyl)-1,3-oxazinan-2-one]", "values": [
      {"measurement": "IC50", "result": "100 to 1000", "unit": "nM"},
      {"measurement": "inhibition at 0.1111 µM", "result": 22.5, "unit": "%"}
    ]},
    {"smiles": "COc1ccc([C@H](C)N2CCC(c3ccc(F)cc3)CC2=O)cc1", "note": "(stereo partly drawn) [Example 6, 4(-4-fluorophenyl)-1-((1S)-1-(4-methoxylphenyl)ethyl)piperidin-2-one]", "values": [
      {"measurement": "IC50", "result": "< 100", "unit": "nM"},
      {"measurement": "inhibition at 0.1 µM", "result": 89.4, "unit": "%"}
    ]},
    {"smiles": "C[C@@H](c1ccc(Br)cc1)N1CCCC(c2ccccc2)NC1=O", "note": "(stereo partly drawn) [Example 8, 1-((S)-1-(4-bromophenyl)ethyl)-4-phenyl-1,3-diazepan-2-one]", "values": [
      {"measurement": "IC50", "result": "< 100", "unit": "nM"},
      {"measurement": "inhibition at 0.1 µM", "result": 100, "unit": "%"}
    ]}
  ]
}
